In article PMC10931833, “Simultaneous Purification of Human Interferon Alpha-2b and Serum Albumin Using Bioprivileged Fluorinated Ionic Liquid-Based Aqueous Biphasic Systems” (International Journal of Molecular Sciences, 2024):
Like-named read-outs stand apart in the source and are kept apart here.

Legend:
BSA [1] = target: T1, BSA (Bos taurus, UniProt P02769); test: CD thermal unfolding (Tm) of BSA; assay type: physicochemical, bovine
T1 construct: purchased Millipore Sigma-Aldrich
Description: The thermal stability assessed by far-UV CD is solely determined through the thermal decay of the alpha-helical structure.

BSA [2] = target: T1, BSA; test: DSC thermal unfolding of BSA in water and aqueous solutions of ABS phase-forming components; assay type: physicochemical, bovine
Experimental: Differential scanning calorimetry (DSC) measurements were performed with Nano DSC equipment, as detailed in Section 3, and used to determine the melting temperature (T m ) and enthalpy ( Δ H) of protein unfolding. DSC analyzes changes in the structure and stability of proteins as thermal transitions at the nanoscale. Using DSC to measure heat capacity as a function of the temperature of a well-studied protein such as BSA provides keen insights into folding and unfolding processes, as well as factors affecting stability. Due to the volume and concentration requirements of the DSC technique, and the constraints in available quantities of IFN- α 2b the DSC experiments on the ABS phase-forming components’ effect on the structural properties of proteins were attained only for BSA.
The T m of BSA, which corresponds to the thermal unfolding transition midpoint, was measured in the absence and presence of the ABS phase-forming components at increasing concentrations (see Figure 1 and Table 2).

BSA [3] = target: T1, BSA; test: Far-UV CD secondary structure of BSA (CONTIN-LL deconvolution); assay type: physicochemical, bovine; set-up: Regular Alpha Helix / Distorted Alpha Helix / Regular Beta Sheet / Distorted Beta Sheet / Turns / Unordered: unit not given here; conditions: for Distorted Alpha Helix / Distorted Beta Sheet / Regular Alpha Helix / Regular Beta Sheet / Turns / Unordered: 25 °C
Description: Circular dichroism (CD) is widely used to study the secondary structures of proteins, peptides and nucleic acids, because it requires a low concentration sample, is a nondestructive method, allows studying a wide range of variables (temperature, pH, etc.), and provides information on the effect of added ligands on protein folding and interactions. Far-UV (190–260 nm) CD spectroscopy was used to assess the IFN- α 2b and BSA secondary structure since the spectra are characteristic of different structural elements.
Circular dichroism (CD) spectra were collected in a 10 mm quartz cuvette and a Chirascan spectropolarimeter (Applied Photophysics, UK) at room temperature. All CD spectra were recorded in the far-UV range of 190 to 260 nm at scan rates of 50 nm/min, with 4 accumulations, and a response time of 3 s; CD spectra were collected. For each CD experiment, two distinct duplicates were acquired and combined. BSA was fixed at 1 mg/mL, solvent concentrations ranging from 0.1 to 200 mM were used, and the spectra were translated to MRE after being expressed in terms of molar ellipticity. Spectral deconvolution was carried out with DichroWeb using the CONTIN-LL deconvolution algorithm with the SMP180 reference set.

FITC-BSA = target: T2, FITC-BSA (Bos taurus, UniProt P02769); test: MST binding to FITC-BSA; set-up: species or system bovine; conditions: 0.41 μM BSA
T2 construct: purchased Millipore Sigma-Aldrich
T2 sequence (P02769 25-607): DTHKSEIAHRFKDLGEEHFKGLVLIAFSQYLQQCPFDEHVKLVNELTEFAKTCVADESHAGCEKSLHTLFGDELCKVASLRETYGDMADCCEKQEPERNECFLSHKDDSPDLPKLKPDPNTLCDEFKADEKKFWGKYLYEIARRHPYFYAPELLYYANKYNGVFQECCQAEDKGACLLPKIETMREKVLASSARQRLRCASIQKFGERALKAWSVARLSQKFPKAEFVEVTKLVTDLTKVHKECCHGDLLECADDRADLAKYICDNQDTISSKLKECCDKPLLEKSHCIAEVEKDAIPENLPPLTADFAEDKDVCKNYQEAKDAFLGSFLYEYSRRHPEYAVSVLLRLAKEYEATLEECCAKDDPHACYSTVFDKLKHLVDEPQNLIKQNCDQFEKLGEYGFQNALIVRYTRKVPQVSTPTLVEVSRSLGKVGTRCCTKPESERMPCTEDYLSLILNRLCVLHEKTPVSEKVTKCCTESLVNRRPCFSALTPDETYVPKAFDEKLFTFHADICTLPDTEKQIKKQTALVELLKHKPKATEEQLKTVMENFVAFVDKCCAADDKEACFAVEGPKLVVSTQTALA
Experimental: Herein, a commercial FITC labeling kit (Section 3) was used to fluorescently tag both IFN- α 2b and BSA. Typically, in the labeling process, one amine per protein is labeled, statistically distributing the position of the dye. […] The MST assay was performed as detailed in Section 3. The solutions were prepared with a concentration of IFN- α 2b and BSA fixed at 0.41 μ M in water. For IFN- α 2b a concentration of 2.7 μ M was also prepared to compare it with previous results on MST-binding between FILs and IFN- α 2b fluorescently labeled with a different tag. In each run of MST, a maximum concentration of a ligand is selected and consecutively diluted in sixteen capillaries. […] The experimental conditions of the MST assay only allow the study of the aggregation phenomenon individually for the first CAC.
Microscale thermophoresis (MST) measurements of the dye-labeled protein were used to conduct binding investigations. […] MST tests were conducted in a monolith NT.115 (blue/red) in accordance with the NanoTemper Technologies methodology. Medium MST power and 20% LED power (nano-blue) were set as the instrument’s default settings. For every MST measurement, a PBS buffer was used. The concentration of FITC-BSA was fixed at 0.4 μ M and FITC-IFN- α 2b was tested under two different concentrations (of 0.4 and 2.7 μ M). The ligand was used to create a set of 16 1:1 dilutions, with the starting ligand concentrations ranging from 10 to 400 mM. The typical parameters for MST traces were used for recording: […], 30 s MST power on, and 5 s MST power off. The data from three independently conducted pipetted experiments were examined using NanoTemper Technologies’ MO.Affinity Analysis software, version 2.3.

[4] = 1.2-1.6 mg/mL BSA in [N1112(OH)][H2PO4]-rich phase of BP#8
[5] = 1.0 mg/ml BSA, 200 mM component aqueous solution
[6] = 1.0 mg/mL BSA, 0.1 mM component
[7] = 1.0 mg/mL BSA, 120 mM component
[8] = 1.0 mg/mL BSA, 200 mM component

T1 sequence (P02769 25-607): as above

For Bovine serum albumin [BSA], the “Tm, Ellipticity 192 nm” value (BSA [1]; 1.0 mg/mL BSA in water) was 74.028 °C, the “Tm, Ellipticity 208 nm” value (BSA [1]; 1.0 mg/mL BSA in water) was 74.616 °C and the “Tm, Ellipticity 222 nm” value (BSA [1]; 1.0 mg/mL BSA in water) was 76.277 °C. For the same compound, the “Tm, Ellipticity 208 nm” value (BSA [1]; [4]) was 76.122 °C, the “Tm, Ellipticity 222 nm” value (BSA [1]; [4]) was 80.396 °C and the ΔG (BSA [2]; 1.0 mg/mL BSA in water) was 16.87 kcal/mol. For the same compound, the ΔHcal (BSA [2]; 1.0 mg/mL BSA in water) was 113.9 kcal/mol, the ΔHvH (BSA [2]; 1.0 mg/mL BSA in water) was 112.4 kcal/mol and the ΔS (BSA [2]; 1.0 mg/mL BSA in water) was 1.361 KJ/(mol.K). The “Distorted Alpha Helix” value (BSA [3]; 1.0 mg/mL BSA in water) was 0.206, the “Distorted Beta Sheet” value (BSA [3]; 1.0 mg/mL BSA in water) was 0.025 and the “Regular Alpha Helix” value (BSA [3]; 1.0 mg/mL BSA in water) was 0.400. For the same compound, the “Regular Beta Sheet” value (BSA [3]; 1.0 mg/mL BSA in water) was 0.000, the Turns (BSA [3]; 1.0 mg/mL BSA in water) was 0.136 and the Unordered (BSA [3]; 1.0 mg/mL BSA in water) was 0.233. For the same compound, the “predicted α-helical content” value (BSA [3]; BSA in water, CD deconvolution) was 0.61.

`OC[C@H]1O[C@@](CO)(O[C@H]2O[C@H](CO)[C@@H](O)[C@H](O)[C@H]2O)[C@@H](O)[C@@H]1O` [Sucrose, sucrose] was tested, and the “Tm, Ellipticity 192 nm” value (BSA [1]; [5]) was 70.098 °C, the “Tm, Ellipticity 208 nm” value (BSA [1]; [5]) was 73.063 °C and the “Tm, Ellipticity 222 nm” value (BSA [1]; [5]) was 71.977 °C. For the same compound, the Tm (BSA [2]; [6]) was 79.97 °C, the ΔG (BSA [2]; [6]) was 19.6 kcal/mol and the ΔHcal (BSA [2]; [6]) was 125 kcal/mol. The ΔHcal/ΔHvH (BSA [2]; [6]) was 0.968, the ΔHvH (BSA [2]; [6]) was 129.2 kcal/mol and the ΔS (BSA [2]; [6]) was 1.480 KJ/(mol.K). For the same compound, the Tm (BSA [2]; 1.0 mg/mL BSA, 1 mM component) was 81.63 °C, the ΔG (BSA [2]; 1.0 mg/mL BSA, 1 mM component) was 26.77 kcal/mol and the ΔHcal (BSA [2]; 1.0 mg/mL BSA, 1 mM component) was 167.4 kcal/mol. For the same compound, the ΔHcal/ΔHvH (BSA [2]; 1.0 mg/mL BSA, 1 mM component) was 0.980, the ΔHvH (BSA [2]; 1.0 mg/mL BSA, 1 mM component) was 170.8 kcal/mol and the ΔS (BSA [2]; 1.0 mg/mL BSA, 1 mM component) was 1.974 KJ/(mol.K). It also gave a Tm (BSA [2]; 1.0 mg/mL BSA, 5 mM component) of 80.68 °C, a ΔG (BSA [2]; 1.0 mg/mL BSA, 5 mM component) of 20.87 kcal/mol and a ΔHcal (BSA [2]; 1.0 mg/mL BSA, 5 mM component) of 131.5 kcal/mol. For the same compound, the ΔHcal/ΔHvH (BSA [2]; 1.0 mg/mL BSA, 5 mM component) was 1.018, the ΔHvH (BSA [2]; 1.0 mg/mL BSA, 5 mM component) was 129.1 kcal/mol and the ΔS (BSA [2]; 1.0 mg/mL BSA, 5 mM component) was 1.552 KJ/(mol.K). The Tm (BSA [2]; 1.0 mg/mL BSA, 10 mM component) was 80.77 °C, the ΔG (BSA [2]; 1.0 mg/mL BSA, 10 mM component) was 25.17 kcal/mol and the ΔHcal (BSA [2]; 1.0 mg/mL BSA, 10 mM component) was 159 kcal/mol. The ΔHcal/ΔHvH (BSA [2]; 1.0 mg/mL BSA, 10 mM component) was 1.046, the ΔHvH (BSA [2]; 1.0 mg/mL BSA, 10 mM component) was 151.9 kcal/mol and the ΔS (BSA [2]; 1.0 mg/mL BSA, 10 mM component) was 1.878 KJ/(mol.K). For the same compound, the “effect on BSA Tm (DSC)” value (BSA [2]; tested concentration range vs water) was “maintained”, the Kd (FITC-BSA; max. conc. first capillary 12.5 mM (monomer)) was “no binding detected” and the Kd (FITC-BSA; max. conc. first capillary 400 mM (monomer)) was “no binding detected”. For the same compound, the “Distorted Alpha Helix” value (BSA [3]; [6]) was 0.205, the “Distorted Beta Sheet” value (BSA [3]; [6]) was 0.026 and the “Regular Alpha Helix” value (BSA [3]; [6]) was 0.391. For the same compound, the “Regular Beta Sheet” value (BSA [3]; [6]) was 0.000, the Turns (BSA [3]; [6]) was 0.136 and the Unordered (BSA [3]; [6]) was 0.242. For the same compound, the “Distorted Alpha Helix” value (BSA [3]; 1.0 mg/mL BSA, 1 mM component) was 0.216, the “Distorted Beta Sheet” value (BSA [3]; 1.0 mg/mL BSA, 1 mM component) was 0.023 and the “Regular Alpha Helix” value (BSA [3]; 1.0 mg/mL BSA, 1 mM component) was 0.428. The “Regular Beta Sheet” value (BSA [3]; 1.0 mg/mL BSA, 1 mM component) was 0.000, the Turns (BSA [3]; 1.0 mg/mL BSA, 1 mM component) was 0.135 and the Unordered (BSA [3]; 1.0 mg/mL BSA, 1 mM component) was 0.198. The “Distorted Alpha Helix” value (BSA [3]; 1.0 mg/mL BSA, 5 mM component) was 0.225, the “Distorted Beta Sheet” value (BSA [3]; 1.0 mg/mL BSA, 5 mM component) was 0.022 and the “Regular Alpha Helix” value (BSA [3]; 1.0 mg/mL BSA, 5 mM component) was 0.427. For the same compound, the “Regular Beta Sheet” value (BSA [3]; 1.0 mg/mL BSA, 5 mM component) was 0.000, the Turns (BSA [3]; 1.0 mg/mL BSA, 5 mM component) was 0.136 and the Unordered (BSA [3]; 1.0 mg/mL BSA, 5 mM component) was 0.19. The “Distorted Alpha Helix” value (BSA [3]; 1.0 mg/mL BSA, 25 mM component) was 0.196, the “Distorted Beta Sheet” value (BSA [3]; 1.0 mg/mL BSA, 25 mM component) was 0.024 and the “Regular Alpha Helix” value (BSA [3]; 1.0 mg/mL BSA, 25 mM component) was 0.333. The “Regular Beta Sheet” value (BSA [3]; 1.0 mg/mL BSA, 25 mM component) was 0.004, the Turns (BSA [3]; 1.0 mg/mL BSA, 25 mM component) was 0.131 and the Unordered (BSA [3]; 1.0 mg/mL BSA, 25 mM component) was 0.312. For the same compound, the “Distorted Alpha Helix” value (BSA [3]; 1.0 mg/mL BSA, 55 mM component) was 0.211, the “Distorted Beta Sheet” value (BSA [3]; 1.0 mg/mL BSA, 55 mM component) was 0.026 and the “Regular Alpha Helix” value (BSA [3]; 1.0 mg/mL BSA, 55 mM component) was 0.412. The “Regular Beta Sheet” value (BSA [3]; 1.0 mg/mL BSA, 55 mM component) was 0.000, the Turns (BSA [3]; 1.0 mg/mL BSA, 55 mM component) was 0.138 and the Unordered (BSA [3]; 1.0 mg/mL BSA, 55 mM component) was 0.214. For the same compound, the “Distorted Alpha Helix” value (BSA [3]; 1.0 mg/mL BSA, 90 mM component) was 0.211, the “Distorted Beta Sheet” value (BSA [3]; 1.0 mg/mL BSA, 90 mM component) was 0.025 and the “Regular Alpha Helix” value (BSA [3]; 1.0 mg/mL BSA, 90 mM component) was 0.4. The “Regular Beta Sheet” value (BSA [3]; 1.0 mg/mL BSA, 90 mM component) was 0.000, the Turns (BSA [3]; 1.0 mg/mL BSA, 90 mM component) was 0.137 and the Unordered (BSA [3]; 1.0 mg/mL BSA, 90 mM component) was 0.227. For the same compound, the “Distorted Alpha Helix” value (BSA [3]; [7]) was 0.212, the “Distorted Beta Sheet” value (BSA [3]; [7]) was 0.025 and the “Regular Alpha Helix” value (BSA [3]; [7]) was 0.415. For the same compound, the “Regular Beta Sheet” value (BSA [3]; [7]) was 0.000, the Turns (BSA [3]; [7]) was 0.135 and the Unordered (BSA [3]; [7]) was 0.213. The “Distorted Alpha Helix” value (BSA [3]; [8]) was 0.216, the “Distorted Beta Sheet” value (BSA [3]; [8]) was 0.024 and the “Regular Alpha Helix” value (BSA [3]; [8]) was 0.436. The “Regular Beta Sheet” value (BSA [3]; [8]) was 0.000, the Turns (BSA [3]; [8]) was 0.136 and the Unordered (BSA [3]; [8]) was 0.189.

Work on `O=S(=O)(O)C(F)(F)C(F)(F)C(F)(F)C(F)(F)F` [[N1112(OH)][C4F9SO3], (2-hydroxyethyl)trimethylammonium perfluorobutane sulfonate] yielded a Kd (FITC-BSA; max. conc. first capillary in 1st CAC range, read-out: Kd) of 860 ± 190 µM and a Kd (FITC-BSA; max. conc. first capillary in 2nd CAC range, read-out: Kd) of 1490 ± 300 µM.
